Where two headings read alike, the source gives them in different places.
What was measured:
[1] = molecular target: T1, CIB1 and αIIb interaction (CIB1-GST : F-αIIb peptide) (Homo sapiens, UniProt Q99828); assay: FP assay, 1536-well qHTS format (primary and confirmatory screen); type: binding; settings: for Curve Class (confirmatory screen) / CONFIRMATORY SCREEN Curve Class: qHTS curve class
T1 construct: made in house; host or cells: BL-21 plus RIL cells (E. coli)
T1 sequence (Q99828 1-191): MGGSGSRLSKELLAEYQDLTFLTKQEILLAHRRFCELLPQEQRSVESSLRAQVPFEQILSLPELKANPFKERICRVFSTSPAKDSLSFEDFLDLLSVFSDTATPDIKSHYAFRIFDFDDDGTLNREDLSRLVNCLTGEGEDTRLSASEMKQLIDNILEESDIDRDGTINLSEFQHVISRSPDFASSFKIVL

[2] = molecular target: T2, GST-CIB1 : F-scrambled peptide (Homo sapiens, UniProt Q99828); assay: FP scrambled-peptide counter screen, 1536-well format; type: binding; settings: for Curve Class (counterscreen) / COUNTERSCREEN Curve Class: qHTS curve class; for IC50: read-out: IC50 [μM] (counterscreen)
T2 construct: made in house; host or cells: BL-21 plus RIL cells (E. coli)
T2 sequence (Q99828 1-191): T1 sequence (Q99828 1-191)

[3] = confirmatory screen, negative sign = inhibitory curve
[4] = confirmatory screen, read-out: IC50 [μM] (confirmatory screen)
[5] = qHTS FP screen hits, Table S2, negative = inhibition
[6] = qHTS FP screen hits, Table S2, one class per curve where COUNT > 1, negative sign = inhibitory curve
[7] = qHTS FP screen hits, Table S2, read-out: IC50
[8] = counterscreen, negative sign = inhibitory curve
[9] = Table S3, confirmatory screen, a negative sign marks inhibitory curves
[10] = Table S3, confirmatory screen, negative = inhibition
[11] = qHTS primary screen hits, Table S2, negative = inhibition
[12] = qHTS primary screen hits, Table S2, negative sign = inhibitory curve, several classes where COUNT > 1
[13] = qHTS primary screen hits, Table S2, read-out: IC50
[14] = Table S3, counterscreen, YES/NO call
[15] = Table S3, counterscreen, a negative sign marks inhibitory curves
[16] = Table S3, counterscreen, negative = inhibition
[17] = qHTS primary screen hits, Table S2, negative sign = inhibitory curve
[18] = Table S3, confirmatory screen, YES/NO call
[19] = Table S3, confirmatory screen, read-out: IC50 [μM] (confirmatory screen)

| SMILES | Efficacy (%) (confirmatory screen) ([1]; confirmatory screen) | Confirm? (confirmatory screen) ([1]; confirmatory screen, YES/NO) | Curve Class (confirmatory screen) [1, 3] | IC50 [1, 4] | Efficacy (%) (counterscreen) ([2]; counterscreen) | Curve Class (counterscreen) [2, 8] | Curve Class (confirmatory screen) [1, 9] | Efficacy (%) (confirmatory screen) [1, 10] | Efficacy (%) [1, 11] | Curve Class [1, 12] | IC50 [1, 13] | Curve Class (counterscreen) [2, 15] | Efficacy (%) (counterscreen) [2, 16] | IC50 ([2]; Table S3, counterscreen) | further results |
| --- | --- | --- | --- | --- | --- | --- | --- | --- | --- | --- | --- | --- | --- | --- | --- |
| C=CCNc1oc(-c2ccc(Cl)cc2)nc1C#N.O=C(O)C(F)(F)F [NCGC00183412-01] | -72% | YES | -2.2 | 31.6 µM | -30% | -1.2 | – | – | – | – | – | – | – | – | Efficacy (%) [1, 5]: -54%; Curve Class [1, 6]: -2.2; IC50 [1, 7]: 50.1 µM; IC50 ([2]; counterscreen): 12.6 µM |
| NC(=O)C1CCN(c2nc(-c3ccccc3N)cs2)CC1.O=C(O)C(F)(F)F [NCGC00183555-01] | – | – | – | – | – | – | 4 | -21% | -77% | -2.2 | 39.8 µM | -1.4 | -31% | 28.2 µM | Confirm? (counterscreen) [2, 14]: YES |
| CC(=O)NC(c1cccs1)c1cc(Br)c2cccnc2c1O (stereo not drawn) [NCGC00183685-02] | – | – | – | – | – | – | – | – | – | – | – | – | – | – | CONFIRMATORY SCREEN Efficacy (%) ([1]; confirmatory screen): -36%; CONFIRMATORY SCREEN Curve Class ([1]; confirmatory screen): 4; COUNTERSCREEN Efficacy (%) ([2]; counterscreen): -11%; COUNTERSCREEN Curve Class ([2]; counterscreen): 4 |
| CCC(=O)NC(c1cccs1)c1cc(Br)c2cccnc2c1O (stereo not drawn) [NCGC00183689-01] | -56% | YES | -2.4 | 25.1 µM | -21% | 4 | – | – | – | – | – | – | – | – | Efficacy (%) [1, 5]: -54%; Curve Class [1, 6]: -1.2; IC50 [1, 7]: 28.2 µM; Confirm? (counterscreen) ([2]; counterscreen, YES/NO): YES |
| NC(=O)c1ccnc2c(O)cccc12.O=C(O)C(F)(F)F [NCGC00183783-01] | -22% | YES | -2.4 | 50.1 µM | -17% | 4 | – | – | -40% | – | 20 µM | – | – | – | Curve Class [1, 17]: -1.2; Confirm? (counterscreen) ([2]; counterscreen, YES/NO): YES |
| O=C(O)C(F)(F)F.Oc1cccc2c(-c3nnn[nH]3)ccnc12 [NCGC00183786-01] | -29% | YES | -1.4 | 25.1 µM | -23% | 4 | – | – | -27% | -1.2 | 3.5 µM | – | – | – | Confirm? (counterscreen) ([2]; counterscreen, YES/NO): YES |
| CN1CCN(c2ccc(-c3cc(O)c4ncccc4c3)cc2)CC1.O=C(O)C(F)(F)F [NCGC00183803-01] | – | – | – | – | – | – | – | – | – | – | – | – | – | – | CONFIRMATORY SCREEN Efficacy (%) ([1]; confirmatory screen): -13%; CONFIRMATORY SCREEN Curve Class ([1]; confirmatory screen): 4; Efficacy (%) [1, 5]: -51%; IC50 [1, 7]: 39.8 µM; COUNTERSCREEN Efficacy (%) ([2]; counterscreen): -12%; COUNTERSCREEN Curve Class ([2]; counterscreen): 4 |
| O=C(O)C(F)(F)F.O=C(c1ccc(-c2cc(O)c3ncccc3c2)cc1)N1CCNCC1 [NCGC00183806-01] | – | – | – | – | – | – | 4 | -11% | -40% | – | 39.8 µM | -1.2 | -59% | 35.5 µM | Curve Class [1, 17]: -2.2; Confirm? (counterscreen) [2, 14]: YES |
| CN(C)CCCNC(=O)c1ccc(-c2cc(O)c3ncccc3c2)cc1 [NCGC00183808-06] | – | – | – | – | – | – | 4 | 0% | – | – | – | -2.4 | -38% | 70.8 µM | Confirm? (counterscreen) [2, 14]: YES |
| CN1CCC(N(Cc2cccs2)c2ccccc2)CC1 [NCGC00183847-01] | – | – | – | – | – | – | – | – | -43% | -2.4 | 39.8 µM | – | – | – | CONFIRMATORY SCREEN Efficacy (%) ([1]; confirmatory screen): 0%; CONFIRMATORY SCREEN Curve Class ([1]; confirmatory screen): 4; COUNTERSCREEN Efficacy (%) ([2]; counterscreen): -12%; COUNTERSCREEN Curve Class ([2]; counterscreen): 4 |
| Cc1ccc2nc3sc(C(=O)NCc4ccco4)cc3cc2c1.O=C(O)C(F)(F)F [NCGC00183968-01] | -34% | YES | -1.2 | 15.8 µM | -27% | 4 | – | – | -24% | -1.4 | 7.1 µM | – | – | – | Confirm? (counterscreen) ([2]; counterscreen, YES/NO): YES |
| CC(=O)Nc1sc2c(c1-c1nc3ccccc3o1)CCN(C(C)C)C2.O=C(O)C(F)(F)F [NCGC00184832-01] | – | – | – | – | – | – | -1.2 | -47% | -78% | -2.2 | 50.1 µM | -2.2 | -55% | 50.1 µM | Confirm? (confirmatory screen) [1, 18]: YES; IC50 [1, 19]: 39.8 µM |
| Oc1ccc(-c2nnn[nH]2)c2cccnc12 [NCGC00184885-01] | -40% | YES | -3 | 79.4 µM | -19% | -1.4 | – | – | -31% | -1.2 | 14.1 µM | – | – | – | IC50 ([2]; counterscreen): 35.5 µM |
| NC(=O)c1ccc(O)c2ncccc12 [NCGC00184888-01] | – | – | – | – | – | – | – | – | -24% | -1.4 | 14.1 µM | – | – | – | CONFIRMATORY SCREEN Efficacy (%) ([1]; confirmatory screen): -19%; CONFIRMATORY SCREEN Curve Class ([1]; confirmatory screen): 4; COUNTERSCREEN Efficacy (%) ([2]; counterscreen): -10%; COUNTERSCREEN Curve Class ([2]; counterscreen): 4 |
| NC(=O)C1CCN(c2ncc(Br)s2)CC1 [NCGC00184919-01] | – | – | – | – | – | – | -2.1 | -112% | – | – | – | -2.1 | -127% | 39.8 µM | Confirm? (confirmatory screen) [1, 18]: YES; IC50 [1, 19]: 50.1 µM; Efficacy (%) [1, 5]: -123%; Curve Class [1, 6]: -2.1; IC50 [1, 7]: 39.8 µM |
| CC(=O)Nc1sc2c(c1-c1nc3ccccc3s1)CNC2.O=C(O)C(F)(F)F [NCGC00185090-03] | – | – | – | – | – | – | 4 | -34% | – | – | – | -2.4 | -43% | 50.1 µM | Efficacy (%) [1, 5]: -28%; IC50 [1, 7]: 12.6 µM; Confirm? (counterscreen) [2, 14]: YES |
| CN1CCN(c2ccc(Nc3nn4c(=O)c5ccccc5nc4s3)cc2)CC1.O=C(O)C(F)(F)F [NCGC00186454-01] | -50% | YES | -2.2 | 50.1 µM | -37% | -2.4 | – | – | -32% | – | 12.6 µM | – | – | – | Curve Class [1, 17]: -1.4; IC50 ([2]; counterscreen): 79.4 µM |
| CC1(C)N=C(Nc2nc3ccccc3o2)NC2=C1C(=O)CCC2.O=C(O)C(F)(F)F [NCGC00187643-01] | – | – | – | – | – | – | – | – | -35% | -2.2 | 20 µM | – | – | – | CONFIRMATORY SCREEN Efficacy (%) ([1]; confirmatory screen): -26%; CONFIRMATORY SCREEN Curve Class ([1]; confirmatory screen): 4; COUNTERSCREEN Efficacy (%) ([2]; counterscreen): -12%; COUNTERSCREEN Curve Class ([2]; counterscreen): 4 |
